Source: patent publication US11254640B2, “N-substituted indoles and other heterocycles for treating brain disorders” (The Regents of the University of California, priority 2019, dated 2022)
Where two headings read alike, the source gives them in different places.

Tests used:
Assay type in all cases: cell-based
[1] = test system: 5HT2A sensor; assay: 5HT2A sensor assay, antagonist mode (sLight1.3s HEK293T stable line); conditions: relative to 5-HT at 100 nM; for 5HT2A Antagonist mean @ 100 nM (%): 100 nM compound; for 5HT2A Antagonist mean @ 10 μM (%): 10 μM compound; for 5HT2A Antagonist mean @ 100 μM (%): 100 μM compound
Method in brief: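 Inactivation score is computed from membrane dFF as (dFF(compound+5HT)−dFF(5HT))/dFF(5HT), with HBSS-only fluorescence as Fapo. Final concentrations: 5-HT 100 nM added first, then compound at 100 nM, 10 μM or 100 μM in 0.1% DMSO. Triplicates; FITC imaging, 5 fields per well.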

[2] = test system: rat cortical neurons; assay: Neurite outgrowth assay; conditions: Cortical neurone, 1 hour treatment at DIV 4, analysed DIV 7, fold vs DMSO control
Text: Neurite outgrowth assay. Changes in the pattern of neurite outgrowth have been implicated in neurodegenerative disorders as well as traumatic injuries. The discovery of new compounds that can positively affect neuritogenesis are important for developing new therapeutics for neurological diseases. Measurement of neurite outgrowth of rat cortical neurons using an automated image-based assay was used to determine the neuroplastic effects of the compounds of the present invention. In some embodiments, a compound of the present invention increases the pattern of neurite outgrowth. In some embodiments, a compound of the present invention increases neurite average length compared to a control. In some embodiments, a compound of the present invention increases neurite branch points compared to a control. In some embodiments, a compound of the present invention increases neurite average length and neurite branch points compared to a control.
Neurite Outgrowth Assay. Rat cortical neurons (20,000 cells/well) were freshly isolated from embryonic day 18 rats and cultured in Neurobasal Medium (+B27). The cultured cells were plated in 96 well-plates (avoiding external wells). At DIV 4, the neurons were treated with compound or control (10 μM) for 1 hour followed by complete washout of the compound. At DIV 7, the neurons were analyzed. The experiments were performed in triplicate. Neurite outgrowth was measured analyzing the following parameters: Number of Cell Bodies, total neurite length (pixels), Root Count, Segments, Extremities Count and node points. Changes in the pattern of neurite outgrowth of the neurons were analyzed by immunocytochemistry against β-III-tubulin. Pictures were acquired by the CellInsight CX7 from Thermo Fisher and analyzed using its software. Results generated in the equipment were maximum neurite length, extremity count, root count, dendrite branch points, and total neurite length. The results were compared to DMSO control, representing the fold-change in neuronal outgrowth.

[3] = test system: 5HT2A sensor; assay: 5HT2A sensor assay, agonist mode (sLight1.3s HEK293T stable line); conditions: percent relative to 5-HT at 100 uM; for 5HT2A Agonist mean @ 100 nM (%): 100 nM compound; for 5HT2A Agonist mean @ 10 μM (%): 10 μM compound; for 5HT2A Agonist mean @ 100 μM (%): 100 μM compound
Method in brief: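 Agonist mode in HEK293T cells stably expressing the sLight1.3 5HT2A sensor, washed into HBSS; compounds at final 100 μM, 10 μM and 100 nM (0.1% DMSO), triplicate wells. Membrane fluorescence (ex 460, em 512-542 nm) imaged before and after addition; dFF=(Fsat−Fapo)/Fapo, expressed as percent activation (DMSO=0, 5HT=100).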

[4] = biological target: T1, 5HT2A (Homo sapiens, UniProt P28223); assay: Calcium flux assay (Calcium secondary messenger pathway); conditions: agonist mode
T1 construct: expressed in transfected cells
Text: Calcium Flux Assay. Calcium Secondary Messenger Pathway. The Calcium No Wash^PLUS assay monitors the activation of a GPCR (e.g., 5HT2A) via Gq secondary messenger signaling in a live cell, non-imaging assay format. Calcium mobilization in PathHunter® cell lines or other cell lines stably expressing Gq-coupled GPCRs (e.g., 5HT2A) is monitored using a calcium-sensitive dye that is loaded into cells. GPCR (e.g., 5HT2A) activation by a compound results in the release of calcium from intracellular stores and an increase in dye fluorescence that is measured in real-time. In some embodiments, the ability of a compound of the present invention to modulate 5-HT2A function is determined using a calcium flux assay. In some embodiments, a compound of the present invention activates a calcium flux assay.
Calcium Secondary Messenger Pathway. Cell lines were expanded from freezer stocks according to standard procedures. Cells were seeded in a total volume of 20 μL into black-walled, clear-bottom, Poly-D-lysine coated 384-well microplates and incubated at 37° C. for the appropriate time prior to testing. Assays were performed in 1× Dye Loading Buffer consisting of 1× Dye, 1× Additive A and 2.5 mM Probenecid in HBSS/20 mM Hepes. Probenicid was prepared fresh. Cells were loaded with dye prior to testing. Media was aspirated from cells and replaced with 20 μL Dye Loading Buffer. Cells were incubated for 30-60 minutes at 37° C.
For agonist determination, cells were incubated with sample to induce response. After dye loading, cells were removed from the incubator and 10 μL HBSS/20 mM Hepes was added. 3× vehicle was included in the buffer when performing agonist dose curves to define the EC80 for subsequent antagonist assays. Cells were incubated for 30 minutes at room temperature in the dark to equilibrate plate temperature. Intermediate dilution of sample stocks was performed to generate 4× sample in assay buffer. Compound agonist activity was measured on a FLIPR Tetra (MDS). Calcium mobilization was monitored for 2 minutes and 10 μL 4× sample in HBSS/20 mM Hepes was added to the cells 5 seconds into the assay.
Compound activity was analyzed using CBIS data analysis suite (ChemInnovation, CA). For agonist mode assays, percentage activity is calculated using the following formula: % Activity=100%×(mean RFU of test sample−mean RFU of vehicle control)/(mean MAX RFU control ligand−mean RFU of vehicle control).

[5] = read-out: Neurite Average Length @ 10 μM
[6] = read-out: Neurite Branch Points: @ 10 μM

T1 sequence (P28223 whole entry): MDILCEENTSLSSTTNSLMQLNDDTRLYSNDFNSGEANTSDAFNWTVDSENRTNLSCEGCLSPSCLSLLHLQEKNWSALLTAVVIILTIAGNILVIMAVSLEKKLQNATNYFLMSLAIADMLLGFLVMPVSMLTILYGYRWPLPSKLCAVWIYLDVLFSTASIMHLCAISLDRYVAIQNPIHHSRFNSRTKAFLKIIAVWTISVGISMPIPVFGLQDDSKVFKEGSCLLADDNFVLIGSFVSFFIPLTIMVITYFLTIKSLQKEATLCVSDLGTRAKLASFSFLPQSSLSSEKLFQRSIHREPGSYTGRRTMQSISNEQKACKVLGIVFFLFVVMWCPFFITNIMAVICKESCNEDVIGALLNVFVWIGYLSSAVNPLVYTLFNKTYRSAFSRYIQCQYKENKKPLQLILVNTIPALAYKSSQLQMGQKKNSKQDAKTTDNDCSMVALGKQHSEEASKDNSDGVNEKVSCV

| Compound | 5HT2A Antagonist mean @ 100 nM (%) [1] | 5HT2A Antagonist mean @ 10 μM (%) [1] | 5HT2A Antagonist mean @ 100 μM (%) [1] | fold induction at 10 µM [2, 5] | fold induction at 10 µM [2, 6] | 5HT2A Agonist mean @ 100 nM (%) [3] | 5HT2A Agonist mean @ 10 μM (%) [3] | 5HT2A Agonist mean @ 100 μM (%) [3] | EC50 [4] [µM] |
| --- | --- | --- | --- | --- | --- | --- | --- | --- | --- |
| COc1cc(C)c2c(ccn2C[C@@H](C)N(C)C)c1 [Example 65, (R)-1-(5-methoxy-7-methyl-1H-indol-1-yl)-N,N-dimethylpropan-2-amine] | C (inhibits 5HT response by <75%) | A (inhibits 5HT response by >100%) | A (inhibits 5HT response by >100%) | 1.5 to 3 | 1.5 to 3 | B (does not activate 5HT2A sensor assay in agonist mode) | B (does not activate 5HT2A sensor assay in agonist mode) | B (does not activate 5HT2A sensor assay in agonist mode) | > 10 |
| C[C@H](Cn1ccc2c(F)c(F)ccc21)N(C)C [Example 67, (R)-1-(4,5-difluoro-1H-indol-1-yl)-N,N-dimethylpropan-2-amine] | A (inhibits 5HT response by >100%) | A (inhibits 5HT response by >100%) | A (inhibits 5HT response by >100%) | 1.5 to 3 | > 3 | B (does not activate 5HT2A sensor assay in agonist mode) | B (does not activate 5HT2A sensor assay in agonist mode) | B (does not activate 5HT2A sensor assay in agonist mode) | > 10 |
| C[C@H](Cn1ccc2cc(F)c(F)cc21)N(C)C [Example 68, (R)-1-(5,6-difluoro-1H-indol-1-yl)-N,N-dimethylpropan-2-amine] | B (inhibits 5HT response by 75% to 100%) | A (inhibits 5HT response by >100%) | A (inhibits 5HT response by >100%) | 1.5 to 3 | > 3 | B (does not activate 5HT2A sensor assay in agonist mode) | B (does not activate 5HT2A sensor assay in agonist mode) | A (activates 5HT2A sensor assay in agonist mode) | > 10 |
| C[C@H](Cn1ccc2cc(F)cc(F)c21)N(C)C [Example 69, (R)-1-(5,7-difluoro-1H-indol-1-yl)-N,N-dimethylpropan-2-amine] | B (inhibits 5HT response by 75% to 100%) | B (inhibits 5HT response by 75% to 100%) | B (inhibits 5HT response by 75% to 100%) | 1.5 to 3 | > 3 | B (does not activate 5HT2A sensor assay in agonist mode) | B (does not activate 5HT2A sensor assay in agonist mode) | A (activates 5HT2A sensor assay in agonist mode) | > 10 |
